Measurements: patent US9476099B2 (TRUSTEES OF DARTMOUTH COLLEGE, priority 2012, dated 2016)
Entries after “also recorded” stand apart in the source; their conditions may differ.

Tests used:
[1] = system: NT2/D1 cells; test: Apoptosis by PARP cleavage and sub G1 DNA content; type: cell-based; conditions: decitabine 10 nM, three days; NT2/D1
Experimental: (§1) Cells were cultured in DMEM media (Gibco) with 10% FBS. Decitabine was added fresh each day. Lentiviral control cells and the stable shRNA DNMT3B knockdown cell line (NT2/D1-R1-sh84) were described previously (Beyrouthy et al. 2009. Cancer Res. 69:9360-9366). DNMT3B knockdown was greater than 90% as confirmed by western blot analysis. Cell proliferation and survival were assessed with the CELL-TITRE GLO assay (Promega). Cell cycle analysis with propidium iodine has been previously described (Kerley-Hamilton et al. 2005. Oncogene 24:6090-6100).
(§2) SYBR green-based real-time PCR (Applied Biosystems) was employed using the ddCT method normalized to GAPDH. For western blot analysis cells were lysed in radioimmune precipitation buffer and separated by SDS-PAGE. Antibodies to actin (sc01615, Santa Cruz), 139-H2AX (Cell Signaling), PARP (c-2-10, Biomol International) and p53 (D0-1, Santa Cruz) were used.

[2] = system: NT2/D1-R1 cells; test: Apoptosis by PARP cleavage and sub G1 DNA content; type: cell-based; conditions: decitabine 10 nM, three days; NT2/D1-R1
Experimental: (§3) Importantly, decitabine-mediated H2AX activation also occurs in the presence of the caspase 3 inhibitor (Z-VAD-FMK) at concentrations that inhibit PARP cleavage.
as §1, §2

[3] = system: RIN1, SOX15 and TLR4 in NT2/D1 cells; test: Real-time PCR of gene expression; type: cell-based; conditions: 10 nM, 3 days, FIG. 14
Source text: The graph depicts an average of triplicate sample determinations. Error bars are standard deviation. *=p<0.05; **=p<0.005.
However, methylation changes were less robust in the experiments in NT2/D1 cells. Only 12 genes were identified as having significant decreases in promoter methylation. […] These six genes included RIN1, SOX15, TLR4, GPER, TRIM54, and CD164L2.
as §2

[4] = system: EC cell lines (NT2/D1, NT2D1/R1, 833K, 833KCP, and Tera-1); test: Cell-Titre Glo viable cell growth and survival, all EC cell lines; type: cell-based; conditions: 10 to 5000 nM added fresh each day for three days; FIG. 1
Experimental: Indicated doses of decitabine were added fresh each day for three days to exponentially growing cultures. Viable cell growth and survival were measured. Data are normalized to no drug treatment. EC cells are NT2/D1, NT2D1/R1, 833K, 833KCP, and Tera-1. Data are the average of 3 experiments in biological duplicate except for MCF-7 cells, which were assayed twice. Error bars are standard deviation (S.D.).
Cell growth and viability of five EC cell lines (NT2/D1, NT2D1/R1, 833K, 833KCP, and Tera-1) were determined, including two cell lines that are cisplatin-resistant (NT2/D1-R1 and 833KCP). Three control somatic tumor cell lines were also tested (HCT116, MCF7 and U2OS). […] Viable cell growth and survival were measured using Cell-Titre Glo (Promega) assays. […] These higher values are similar to the values shown in FIG. 1 for somatic tumor cell lines (MCF7, U2OS and HCT116).
NT2/D1, NT2D1-R1, 833K, 833K-CP, Tera-1, U20S, and HCT116 cells were cultured in DMEM with 10% FBS supplemented with glutamine and antibiotics except for MCF7 cells that were cultured in F12-DMEM. The derivation of the NT2/D1-resistant NT2/D1-R1 cell line has been previously described (Curtin et al. 2001. Oncogene 20:2559-2569; Kerley-Hamilton et al. 2007. Biochim. Biophys. Acta 1769:209-219). Cells were treated with the indicated dosages of 5-azadeoxycytidine (5-aza-CdR) for 3 days. This drug was replenished each day. […]

[5] = system: NT2 cells; test: Gene set enrichment analysis (GSEA) of microarray data (Table 6); type: cell-based, human
Experimental: Gene set enrichment analysis (GSEA) was performed.
(§4) Expression analysis was performed on the […] HumanHT-12 v3 or […] HumanHT-12 v4 bead chip arrays ([…]) and scanned on the BeadArray Reader ([…]) according to manufacturer's instructions.

[6] = system: NT2/D1 cells; test: Gene expression microarray with PAM cluster analysis (Tables 1-5); type: cell-based, human; conditions: 1.5-fold or greater
Experimental: The cisplatin treatment protocol has been previously described (Kerley-Hamilton et al. 2005. Oncogene 24:6090-6100).
The same effect was not observed in cells treated with cisplatin; gene expression levels were not dramatically altered in cisplatin-treated cells. […] The genes clustered into distinct patterns.
Next, partitioning around medoids (PAM) analysis was performed on the 1130 genes whose expression levels changed by 1.5-fold or greater as compared to control treatment. […] Changes in gene expression levels of representative genes for each cluster were confirmed in independent samples by real-time PCR (FIG. 10).
as §4

[7] = system: U87 glioblastomoa cells; test: Decitabine treatment of glioblastoma cells; type: cell-based; conditions: doses as high as 1 μM
[8] = system: phosphorylated H2AX in NT2/D1-R1 cells; test: DNA damage by induction of phosphorylated H2AX (western blot); type: cell-based; conditions: three day decitabine treatment
Source text: as §3, §2

[9] = system: LINE-1 elements in NT2/D1 cells; test: LINE-1 element bisulfite pyrosequencing (global DNA methylation); type: cell-based; conditions: low dose decitabine
Source text: Genomic DNA was isolated with the QIAMP DNA mini kit (Qiagen) and bisulfite converted with the EZ DNA methylation kit (Zymo Research). DNA was amplified with HOTSTARTAQ plus DNA polymerase (Qiagen). The LINE-1 pyrosequencing assay averages across four CpG sites and has been described previously (Kashiwagi et al. 2011. Nucleic Acids Res. 39:874-888). Pyrosequencing assays for RIN1, SOX15, and TLR4 were designed with PyroMark assay design software (Qiagen) to sequence across corresponding probes cg0599842, cg02515422 and cg13098960 on the HumanMethylation27 BeadChip.

[10] = system: colorectal cancer, cancer of the head and neck, renal carcinoma, or malignant melanoma; conditions: 75 mg/m^2, 3 treatments in one day, repeated once a week for 5 weeks; Abele et al. 1987; cited from earlier work
[11] = Gene Sets Depleted in NT2 Cells with 3-Day Decitabine Treatment (10 nM)
[12] = Gene Sets Enriched in NT2 Cells with 3-Day Decitabine Treatment (10 nM)

## Nc1ncn([C@H]2C[C@H](O)[C@@H](CO)O2)c(=O)n1 [decitabine, 5-aza-deoxycytidine]
[1]
  apoptotic responses (PARP cleavage, sub G1 DNA content with G2 arrest): apoptotic responses
[2]
  apoptotic responses (PARP cleavage, sub G1 DNA content with G2 arrest): apoptotic responses; also recorded: induced apoptosis
[3]
  expression of RIN1, SOX15 and TLR4 (real-time PCR): increased expression
[4]
  growth of all EC cell lines: inhibited
[5]; [11]
  NES, BENPORATH_ES_1: 2.6981
  NES, BENPORATH_ES_2: 2.3953
  NES, BHATTACHARYA_EMBRYONIC_STEM_CELL: 2.2132
  NES, CONRAD_STEM_CELL: 2.1627
  NES, MISSIAGLIA_REGULATED_BY_METHYLATION_DN: 2.1720
  NES, MUELLER_PLURINET: 2.2694
  NES, PAL_PRMT5_TARGETS_UP: 2.2049
  NES, SCHLOSSER_MYC_TARGETS_AND_SERUM_RESPONSE_DN: 2.2821
  NES, SCHLOSSER_MYC_TARGETS_REPRESSED_BY_SERUM: 2.4043
  NES, SCHUHMACHER_MYC_TARGETS_UP: 2.5662
  NES, VSE2F_02: 2.2708
  NES, WONG_EMBRYONIC_STEM_CELL_CORE: 2.4279
[5]; [12]
  NES, CONCANNON_APOPTOSIS_BY_EPOXOMICIN_UP: −2.2139
  NES, HAMAI_APOPTOSIS_VIA_TRAIL_DN: −1.9615
  NES, HELLER_SILENCED_BY_METHYLATION_UP: −1.9604
  NES, KERLEY_RESPONSE_TO_CISPLATIN_UP: −2.4408
  NES, KIM_RESPONSE_TO_TSA_AND_DECITABINE_UP: −1.9665
  NES, KYNG_DNA_DAMAGE_BY_UV: −2.0319
  NES, MISSIAGLIA_REGULATED_BY_METHYLATION_UP: −2.1687
  NES, MUELLER_METHYLATED_IN_GLIOBLASTOMA: −2.0961
  NES, RUGO_UV_RESPONSE: −1.9676
[6]; 10 nM, 3 days
  Cluster 1: genes primarily up-regulated only with 3 days of decitabine treatment: 704 genes
[6]
  Cluster 3: genes upregulated by both decitabine treatment and cisplatin treatment: 71 genes
  Cluster 4: genes down-regulated by decitabine, enriched in pluripotency genes: 186 genes
  Cluster 5: genes down-regulated by both decitabine treatment and cisplatin treatment: 88 genes
[7]
  effect of decitabine treatment on U87 cells: unaffected
[8]
  DNA damage assessed by induction of phosphorylated H2AX: induced DNA damage
[9]
  global DNA methylation (LINE-1 bisulfite pyrosequencing): significant reduction in global DNA methylation
[10]
  efficacy against cancer in patients: no efficacy
